Assay results as given in patent publication US6455268B1, “Hydrolytic enzyme substrates and assay method” (Iconix Pharmaceuticals Inc., priority 1999, dated 2002).

Tests used:
β-glucuronidase (GUS) = target: T1, β-glucuronidase (GUS) (Escherichia coli, UniProt P05804); assay: in vitro hydrolysis with β-glucuronidase, fluorimeter excitation and emission spectra; assay type: biochemical, E. coli
T1 construct: purchased Sigma Chemicals, St. Louis, Mo
Description: A fluorimetery cuvette was prepared by adding 3 μL of 0.5 mM 7CC-FDG in DMSO (Compound F), to 3 mL of 50 mM Hepes buffer, pH 7.0, with 1 mM each CaCl2 and MgSO4. Fluorescent excitation and emission spectra of the sample were recorded using a Jobin-Yvon-SPEX Instruments Fluormax-2 fluorimeter under the following conditions: excitation at 300-500 nm with emission recorded at 515 or 530 nm (FIG. 4, scan A and B respectively); excitation at 350 nm and emission recorded at 425-650 nm (FIG. 4, scan C); excitation at 406 nm and emission recorded at 425-530 nm (FIG. 4, scan D); and excitation at 488 nm with emission recorded at 500-650 nm (FIG. 4, scan E). […] The ratio computed is the emission at 450 nm when the exciting light was of 350 nm or 406 nm divided by the emission at 515 nm when the exciting light was of 488 nm.

[1] = control samples with OPAE replaced by PBS (no enzyme), non-enzymatic hydrolysis; assay type: physicochemical; conditions: PBS pH 7.0, no enzyme
Description: (§1) Ninety-six well microtiter plates were prepared containing duplicate samples, each sample containing 4-(5-chloro-6-hydroxycoumarinamido)butyl-5-carboxamidofluorescein diacetate (“Compound 11”, 2 mM, 2 μL) in DMSO with phosphate buffered saline (PBS, 200 μL, pH 7.0). To each well was added orange peel acetylesterase (OPAE, Sigma, St. Louis, Mo., 5 μL, 39 U/mL) as a suspension in (NH4)2SO4 (2.5 M) and sodium oxalate (0.1 M). A set of control samples was prepared in which the OPAE was replaced with PBS (no enzyme). […] The plate was read prior to OPAE addition, at time 0, and at 5, 10, 30, 60, and 150 minutes after addition. Each reading was taken at three wavelength pairs using a Molecular Devices fmax fluorescent plate reader: excite 485/emission 530 (to measure fluorescein fluorescence); excite 350/emission 530 (to measure FRET fluorescence); and excite […] (to measure coumarin fluorescence).

[2] = tested on: orange peel acetylesterase (OPAE); assay: in vitro hydrolysis with orange peel acetylesterase, fluorescence/FRET plate reading; assay type: biochemical
Description: as §1
A control set of experiments was preformed as above, but substituting a mixture of equal molar amounts of 5-carboxyfluorescein diacetate (5-CFDA, Calbiochem) and 6-chloro-7-hydroxycoumarin methyl ester. This mixture was non-fluorescent at 530 nm prior to OPAE addition and was fluorescent at 460 nm. […] Furthermore, in this unlinked mixture case, the ratio of 530 nm to 460 nm only changed from 0.13 to 0.7; in contrast to the ratio change for the compound above, from 0.13 to 13.5.

T1 sequence (P05804 whole entry): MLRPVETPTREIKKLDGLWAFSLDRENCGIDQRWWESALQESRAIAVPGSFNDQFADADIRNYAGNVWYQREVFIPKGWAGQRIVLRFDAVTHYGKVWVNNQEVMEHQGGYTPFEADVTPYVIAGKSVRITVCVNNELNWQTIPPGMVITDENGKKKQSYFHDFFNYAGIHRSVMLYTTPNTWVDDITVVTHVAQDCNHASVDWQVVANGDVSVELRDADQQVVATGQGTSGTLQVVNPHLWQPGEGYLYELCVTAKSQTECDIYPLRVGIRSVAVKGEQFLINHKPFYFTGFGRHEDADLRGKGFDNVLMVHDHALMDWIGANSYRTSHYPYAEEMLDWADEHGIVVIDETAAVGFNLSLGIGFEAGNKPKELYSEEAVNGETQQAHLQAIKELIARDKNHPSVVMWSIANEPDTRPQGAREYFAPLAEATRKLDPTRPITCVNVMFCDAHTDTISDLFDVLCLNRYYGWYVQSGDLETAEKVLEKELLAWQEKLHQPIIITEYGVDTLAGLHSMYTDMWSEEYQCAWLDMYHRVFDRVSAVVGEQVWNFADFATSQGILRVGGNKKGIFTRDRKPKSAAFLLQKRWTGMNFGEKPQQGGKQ

O=C(O)CCC(NC(=O)Nc1ccc2c(c1)C(=O)OC21c2ccc(OC3OC(C(=O)O)C(O)C(O)C3O)cc2Oc2cc(OC3OC(C(=O)O)C(O)C(O)C3O)ccc21)C(=O)NCCCCNC(=O)c1cc2cc(Cl)c(O)cc2oc1=O (centres unmarked) [Compound 7CC-FDG]
cleavage of the substrate by β-glucuronidase (β-glucuronidase (GUS); 72 Units GUS, 50 mM Hepes pH 7.0): can be cleaved by β-glucuronidase readily
dynamic range of emission ratio 450 nm/515 nm (β-glucuronidase (GUS); excitation at 350 nm and 488 nm, respectively): about 23 fold
dynamic range of emission ratio 450/515 (β-glucuronidase (GUS); excitation at 406 nm and 488 nm): about 50 fold
quenching of the coumarin moiety fluorescence in the completely cleaved product (β-glucuronidase (GUS); scan D (excitation 406 nm), 60 min. versus 0 min. time point): more than 50%

CC(=O)Oc1ccc2c(c1)Oc1cc(OC(C)=O)ccc1C21OC(=O)c2cc(C(=O)NCCCCNC(=O)c3cc4c(Cl)c(O)ccc4oc3=O)ccc21 [Compound 11, 4-(5-chloro-6-hydroxycoumarinamido)butyl-5-carboxamidofluorescein diacetate]
non-enzymatic hydrolysis [1]: very low rates of non-enzymatic hydrolysis
ratio of 530 nm to 460 nm emission, end of change ([2]; after OPAE hydrolysis (0.94 U/mL, read up to 150 minutes), excitation 350 nm, PBS pH 7.0): 13.5
change of coumarin fluorescence (460 nm) after OPAE addition ([2]; in the presence of OPAE): decrease in fluorescence
ratio of 530 nm to 460 nm emission, start of change ([2]; prior to OPAE hydrolysis, excitation 350 nm, PBS pH 7.0): 0.13
